This passage reports IC50 results from US12312330B2, “1-((S)-1-(3-chloro-5-fluoro-2-((4-(1h-pyrazol-1-yl)-2-methylquinolin-8-yloxy)methyl)phenyl)ethyl)-imidazolidine-2,4-dione derivatives and related compounds as bradykinin (BK) B2 receptor antagonist for treating skin diseases” (Pharvaris GmbH, priority 2019, dated 2025).

Structures are written as SMILES.

In the assay the target is T1, human bradykinin B2 receptor (hB2R) (Homo sapiens, UniProt P30411).
T1 sequence (P30411 1-391): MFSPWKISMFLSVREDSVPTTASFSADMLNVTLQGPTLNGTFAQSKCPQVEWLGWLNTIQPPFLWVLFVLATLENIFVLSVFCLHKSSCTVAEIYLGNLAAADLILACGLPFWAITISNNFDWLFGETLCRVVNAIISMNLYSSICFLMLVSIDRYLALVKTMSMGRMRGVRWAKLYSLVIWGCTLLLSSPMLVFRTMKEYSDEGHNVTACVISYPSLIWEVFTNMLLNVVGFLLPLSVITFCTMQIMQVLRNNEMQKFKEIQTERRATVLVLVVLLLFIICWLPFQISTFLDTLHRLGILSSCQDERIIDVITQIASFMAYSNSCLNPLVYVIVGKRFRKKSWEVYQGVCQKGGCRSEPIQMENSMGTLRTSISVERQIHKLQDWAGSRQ
The experiment in a line: human bradykinin B2 receptor calcium mobilization (hB2R-CaM) assay. Particulars: antagonism of bradykinin (EC80) induced calcium mobilization, B2 Bradykinin Receptor Stable Cell Line HTS041C, 25 min pre-incubation; read-out: IC50-value towards human bradykinin B2 receptor (hB2R). The class given is cell-based. The source says:
The following cell-based human bradykinin B2 receptor calcium mobilization (hB2R-CaM) assay was used to determine the antagonistic activity of compounds selected from the example compounds Nos. 1 to 107 towards human bradykinin B2 receptor (hB2R). The assay is defined herein as a standard in vitro B2 receptor activity assay, which can be used to determine IC50 values of the compounds according to the present invention, e. g. the compounds shown in Examples 1-13.
The antagonistic activity of compounds according to the present invention was investigated with the hB2R-CaM assay using the B2 Bradykinin Receptor Stable Cell Line HTS041C (Eurofins, St. Charles MO) and the FLIPR Calcium 6 Assay Kit (Molecular Devices, Wokingham, UK) according to the instructions of the providers. CaM assay measurements were performed with a Flexstation 3 System (Molecular Devices) which allows the precise addition of compounds (B2R antagonists) and bradykinin (B2R agonist) to the cells and adjacent continuous recording of the time-dependent CaM assay signals.
HTS041C cells were cultured in high glucose DMEM cell culture medium (Lonza) supplemented with 10% heat-inactivated FBS (PAN Biotech), 10 mM HEPES, Penicillin/Streptomycin (200 U/mL, 200 μg/mL), lx non-essential amino acids (Lonza), and 250 μg/mL G418 (Invivogen) in cell incubator at 37° C. in a 5% CO2 atmosphere. One day before the CaM assay experiments cells were seeded in 200 μL DMEM cell culture medium with reduced FBS (5%) and without G418 on clear bottom black 96 well plates (ThermoFisher #165305). Cell starvation was carried out by incubation (37° C., 5% CO2) of 70.000 cells/well for 24 h to 28 h. Immediately prior calcium dye-loading the medium was carefully aspirated and cells were washed with Hank's balanced salt solution (HBSS, Gibco) containing Ca^2+, Mg^2+ and 20 mM HEPES, adjusted to pH 7.4 (HBSS+).
For calcium dye-loading one FLIPR 6 assay aliquot was dissolved in 20 mL HBSS+. 150 μL of the dye loading solution was added to cell plate and incubated for 120 min at 37° C. and 5% CO2. After dye loading the cell plate was immediately transferred to the pre-warmed (37° C.) Flexstation 3 System for CaM assaying.
Freshly prepared compound (B2 receptor antagonists) dilution series (8 pt, n=2) and bradykinin (B2 receptor agonist) solution in non-binding plates (Costar) were transferred to the Flexstation System (source plate) shortly before starting the experiment. Bradykinin was added in EC80 concentration determined in n>3 preliminary experiments with 8 pt concentration response curves (n=8)). CaM assay was executed by Flexstation 3 System starting with recording of calcium-sensitive dye fluorescence in bottom-read Flex modus with ex/em=485 nm/525 nm, cut off(em)=515 nm After 20 s, 50 μL of 4-fold concentrated compound dilutions were added to the cells resulting in a final DMSO (Sigma) concentration of 0.1% in the cell plate. CaM signals were monitored for 80 s after additions for detection of potential agonistic activities. Prior to bradykinin stimulus compound- and vehicle-treated cells were incubated for 25 min at 37° C. within the Flexstation System. Then 50 μL of a 5-fold concentrated bradykinin solution (HBSS+, 0.1% DMSO) was added to trigger CaM signals (Read out: Max-Min values) which were measured for 80 s post bradykinin stimulus.
IC50 determinations were performed by 4 parameter logistic model curve fitting of the 8 pt (n=2) compound concentration response curves using XLFIT (IDBS) software.
As for `Cc1cc(-n2cc(F)cn2)c2cccc(OCc3c(Cl)cc(F)cc3[C@H](C)N3CC(=O)NCC3=O)c2n1` [compound 25], the IC50 fell in the range of 11 to 100 nM. Next, `Cc1cc(-n2cc(F)cn2)c2cccc(OCc3c(Cl)cc(F)cc3[C@H](C)N3C(=O)COCC3C)c2n1` (single isomer, unassigned) [compound 32]: 11 to 100 nM. Take `Cc1cc(-n2cc(F)cn2)c2cccc(OCc3c(Cl)cc(F)cc3[C@H](C)N3CCN(C)[C@H](C)C3=O)c2n1` [compound 93]: the IC50 was at most 10 nM. With `Cc1cc(-c2ncnn2C)c2cccc(OCc3c(Cl)cc(F)cc3[C@H](C)N3C(=O)N(C4CC4)C(=O)C3C)c2n1` (single isomer, unassigned) [compound 56] the figure was 11 to 100 nM; with `Cc1cc(-n2cc(F)cn2)c2cccc(OCc3c(Cl)cc(F)cc3[C@H](C)N3CC(=O)NC3=O)c2n1` [compound 19], 11 to 100 nM.

As for `Cc1cc(-n2cc(F)cn2)c2cccc(OCc3c(Cl)cc(F)cc3[C@H](C)N3C(=O)[C@H](C)NC(=O)[C@@H]3C)c2n1` [compound 90], the IC50 lay within 11 to 100 nM.

As to `Cc1cc(-c2ncnn2C)c2cccc(OCc3c(Cl)cc(F)cc3[C@H](C)N3CC[C@H](F)C3=O)c2n1` [compound 91], the IC50 is at most 10 nM.

Regarding `Cc1cc(-c2ncnn2C)c2cccc(OCc3c(Cl)cc(F)cc3[C@H](C)N3CC(=O)N(C)[C@H](C)C3=O)c2n1` [compound 104], the IC50 is at most 10 nM. Next, `Cc1cc(-n2cc(F)cn2)c2cccc(OCc3c(Cl)cc(F)cc3[C@H](C)N3C[C@H](O)CC3=O)c2n1` [compound 95]: 11 to 100 nM; `Cc1cc(-c2ncnn2C)c2cccc(OCc3c(Cl)cc(F)cc3[C@H](C)N3CC(=O)N(C)CC3=O)c2n1` [compound 47]: 11 to 100 nM; `Cc1cc(-c2ncnn2C)c2cccc(OCc3c(Cl)cc(F)cc3[C@H](C)N3CCOCC3=O)c2n1` [compound 34]: at most 10 nM.

Regarding `CCN1C(=O)C(C)N([C@@H](C)c2cc(F)cc(Cl)c2COc2cccc3c(-n4cc(F)cn4)cc(C)nc23)C1=O` (single isomer, unassigned) [compound 29], the IC50 lay within 11 to 100 nM.

Regarding `Cc1cc(-c2ncnn2C)c2cccc(OCc3c(Cl)cc(F)cc3[C@H](C)N3C[C@H](O)CC3=O)c2n1` [compound 96], the IC50 was 11 to 100 nM. With `Cc1cc(-c2ncnn2C)c2cccc(OCc3c(Cl)cc(F)cc3[C@H](C)N3CC[C@H](Cl)C3=O)c2n1` [compound 44], the IC50 is at most 10 nM. As for `CCN1C(=O)CN([C@@H](C)c2cc(F)cc(Cl)c2COc2cccc3c(-n4cc(F)cn4)cc(C)nc23)C1=O` [compound 107], the IC50 lay in the range of 11 to 100 nM.

Regarding `Cc1cc(-c2ncnn2C)c2cccc(OCc3c(Cl)cc(F)cc3[C@H](C)N3CCOC(C)C3=O)c2n1` (single isomer, unassigned) [compound 48], the IC50 was at most 10 nM. As to `Cc1cc(-c2ncnn2C)c2cccc(OCc3c(Cl)cc(F)cc3[C@H](C)N3C[C@@H](C)OCC3=O)c2n1` [compound 40], the IC50 is at most 10 nM. Next, `Cc1cc(-n2cc(F)cn2)c2cccc(OCc3c(Cl)cc(F)cc3[C@H](C)N3CCOC(C)C3=O)c2n1` (single isomer, unassigned) [compound 35]: 11 to 100 nM.

On to `Cc1cc(-c2ncnn2C)c2cccc(OCc3c(Cl)cc(F)cc3[C@H](C)N3C(=O)[C@H](C)NC(=O)[C@H]3C)c2n1` [compound 106], for which the IC50 lay within 11 to 100 nM. Next, `Cc1cc(-n2cc(F)cn2)c2cccc(OCc3c(Cl)cc(F)cc3[C@H](C)N3CCN(C(C)C)CC3=O)c2n1` [compound 76]: at most 10 nM. Next, `Cc1cc(-n2cc(F)cn2)c2cccc(OCc3c(Cl)cc(F)cc3[C@H](C)N3CC[C@H](O)C3=O)c2n1` [compound 28]: 101 to 500 nM.

In the case of `Cc1cc(-n2cc(F)cn2)c2cccc(OCc3c(Cl)cc(F)cc3[C@H](C)N3CCOCC3=O)c2n1` [compound 18], the IC50 fell in the range of 11 to 100 nM.

For `Cc1cc(-n2cc(F)cn2)c2cccc(OCc3c(Cl)cc(F)cc3[C@H](C)N3CCN[C@H](C)C3=O)c2n1` [compound 77], the IC50 lay in the range of 11 to 100 nM. For the compound `Cc1cc(-n2cc(F)cn2)c2cccc(OCc3c(Cl)cc(F)cc3[C@H](C)N3CC(=O)N(CCN(C)C)C3=O)c2n1` [compound 24], the IC50 is 11 to 100 nM.

Consider `Cc1cc(-c2ncnn2C)c2cccc(OCc3c(Cl)cc(F)cc3[C@H](C)N3CC[C@H](N)C3=O)c2n1` [compound 69], for which the IC50 is 11 to 100 nM.

Consider `Cc1cc(-n2cc(F)cn2)c2cccc(OCc3c(Cl)cc(F)cc3[C@H](C)N3CC(=O)N(CCO)C3=O)c2n1` [compound 15], for which the IC50 was at most 10 nM. In the case of `Cc1cc(-c2ncnn2C)c2cccc(OCc3c(Cl)cc(F)cc3[C@H](C)N3CC(C)CC3=O)c2n1` (stereo partly drawn) [compound 63], the IC50 was at most 10 nM. Next, `Cc1cc(-n2cc(F)cn2)c2cccc(OCc3c(Cl)cc(F)cc3[C@H](C)N3C[C@H](O)CCC3=O)c2n1` [compound 82]: at most 10 nM; `Cc1cc(-n2cc(F)cn2)c2cccc(OCc3c(Cl)cc(F)cc3[C@H](C)N3C[C@H](C)OCC3=O)c2n1` [compound 38]: 11 to 100 nM. `Cc1cc(-c2ncnn2C)c2cccc(OCc3c(Cl)cc(F)cc3[C@H](C)N3C[C@H](C)NC(=O)C3=O)c2n1` [compound 68]: the IC50 was at most 10 nM.

Take `Cc1cc(-c2ncnn2C)c2cccc(OCc3c(Cl)cc(F)cc3[C@H](C)N3C[C@@H](OC(F)F)CC3=O)c2n1` [Compound No. 6, (S)-1-((S)-1-(3-chloro-5-fluoro-2-((2-methyl-4-(1-methyl-1H-1,2,4-triazol-5-yl)quinolin-8-yloxy)methyl)phenyl)ethyl)-4-(difluoromethoxy)pyrrolidin-2-one]: the IC50 lay in the range of 11 to 100 nM. Next, `Cc1cc(-c2ncnn2C)c2cccc(OCc3c(Cl)cc(F)cc3[C@H](C)N3C(=O)COCC3C)c2n1` (single isomer, unassigned) [compound 70]: 11 to 100 nM; `Cc1cc(-n2cc(F)cn2)c2cccc(OCc3c(Cl)cc(F)cc3[C@H](C)N3CC(=O)N(C)[C@@H](C)C3=O)c2n1` [Compound No. 12, (S)-1-((S)-1-(3-chloro-5-fluoro-2-((4-(4-fluoro-1H-pyrazol-1-yl)-2-methylquinolin-8-yloxy)methyl)phenyl)ethyl)-3,4-dimethylpiperazine-2,5-dione]: at most 10 nM. With `Cc1cc(-n2cc(F)cn2)c2cccc(OCc3c(Cl)cc(F)cc3[C@H](C)N3C[C@@H](C)OCC3=O)c2n1` [compound 39] the figure was 11 to 100 nM. With `Cc1cc(-c2ncnn2C)c2cccc(OCc3c(Cl)cc(F)cc3[C@H](C)N3CC(=O)N[C@H](C)C3=O)c2n1` [compound 75] the figure was 11 to 100 nM; with `Cc1cc(-n2cc(F)cn2)c2cccc(OCc3c(Cl)cc(F)cc3[C@H](C)N3C[C@@H](O)CCC3=O)c2n1` [compound 45], at most 10 nM; with `Cc1cc(-n2cc(F)cn2)c2cccc(OCc3c(Cl)cc(F)cc3[C@H](C)N3CC(=O)N(C)[C@H](C)C3=O)c2n1` [compound 103], 11 to 100 nM. With `CNC(=O)CN1C(=O)CN([C@@H](C)c2cc(F)cc(Cl)c2COc2cccc3c(-n4cc(F)cn4)cc(C)nc23)C1=O` [compound 20], the IC50 was in the range of 11 to 100 nM.

Regarding `Cc1cc(-c2ncnn2C)c2cccc(OCc3c(Cl)cc(F)cc3[C@H](C)N3CC(=O)NC(C)(C)C3=O)c2n1` [compound 101], the IC50 lay in the range of 11 to 100 nM.
